Source: ChEMBL document CHEMBL3045870, “Some new thiazolyl thiazolidinedione derivatives as aldose reductase inhibitors” (Med Chem Res, 2007)

Target: Aldo-keto reductase family 1 member B1 (Rattus norvegicus) (UniProt P07943)
Assay: Inhibition of Rattus norvegicus (rat) kidney aldose reductase using D-L-glyceraldehyde as substRattus norvegicus (rat) e assessed as decrease in NADPH level at 10^-4 M measured for 5 min by spectrophotometric analysis

**Q.** With `O=C1S/C(=C\c2sc(SCc3ccc(Cl)cc3)nc2Cl)C(=O)N1Cc1ccc(Br)cc1` as the molecule, how does the inhibition read?
**A.** 0%

**Q.** For `O=C1S/C(=C\c2sc(N3CCCCC3)nc2Cl)C(=O)N1Cc1ccc(Br)cc1`, which inhibition is on record?
**A.** 0.62%

**Q.** Which inhibition does the source give for `O=C1S/C(=C\c2sc(N3CCCCC3)nc2Cl)C(=O)N1Cc1ccc(Cl)cc1` here?
**A.** 0.62%

**Q.** With `O=C1S/C(=C\c2sc(N3CCCCC3)nc2Cl)C(=O)N1Cc1ccc(F)cc1` as the molecule, how does the inhibition read?
**A.** 0%

**Q.** `O=C1S/C(=C\c2sc(N3CCCCC3)nc2Cl)C(=O)N1Cc1ccc([N+](=O)[O-])cc1` was tested. Which inhibition did it give?
**A.** 2.49%

**Q.** Which inhibition does the source give for `O=C1S/C(=C\c2sc(SCc3ccc(Cl)cc3)nc2Cl)C(=O)N1Cc1ccc(Cl)cc1` here?
**A.** 0%

**Q.** Which inhibition does the source give for `O=C1S/C(=C\c2sc(N3CCCCC3)nc2Cl)C(=O)N1Cc1ccccc1` here?
**A.** 0%

**Q.** For `O=C1S/C(=C\c2sc(SCc3ccc(Cl)cc3)nc2Cl)C(=O)N1Cc1ccc([N+](=O)[O-])cc1`, which inhibition is on record?
**A.** 0%

**Q.** `O=C1S/C(=C\c2sc(SCc3ccc(Cl)cc3)nc2Cl)C(=O)N1Cc1ccccc1` was tested. Which inhibition did it give?
**A.** 0%

**Q.** For `O=C1S/C(=C\c2sc(SCc3ccc(Cl)cc3)nc2Cl)C(=O)N1Cc1ccc(F)cc1`, which inhibition is on record?
**A.** 0%

**Q.** With `O=C1S/C(=C\c2sc(SCc3ccc(Cl)cc3)nc2Cl)C(=O)N1Cc1ccc(Cl)cc1Cl` as the molecule, how does the inhibition read?
**A.** 1.56%

**Q.** With `O=C1S/C(=C\c2sc(N3CCCCC3)nc2Cl)C(=O)N1Cc1ccc(Cl)cc1Cl` as the molecule, how does the inhibition read?
**A.** 3.27%
